Source: patent publication US12442042B2, “Epigenomic profiling reveals the somatic promoter landscape of primary gastric adenocarcinoma” (AGENCY FOR SCIENCE, TECHNOLOGY AND RESEARCH, priority 2016, dated 2025)

Key:
IM95 GC cells = test: EZH2 inhibition: RNA-seq of GSK126-treated IM95 cells at promoter loci; format: cell-based, human
Description: IM95 were treated with GSK126 (Selleck, USA), a selective EZH2 inhibitor, at a concentration of 5 μM. Cell proliferation was monitored in 96-well plates post-treatment with GSK126 using the CellTiter-Glo® Luminescent Cell Viability Assay (Promega) for three independent experiments. For RNA-seq analysis, total RNA was extracted using the Qiagen RNAeasy mini kit according to manufacturer's instructions. Cells were treated with GSK126 (Selleck, USA; dissolved in DMSO) at a concentration of 5 μM. Control cells were treated with the same concentration of DMSO (0.1%). RNAseq differential analysis for promoter loci was carried out using edgeR on read counts mapping to H3K4me3 regions estimated using featureCounts. RNAseq gene level differential analysis was performed using cuffdiff2.2.1.

HLA-A*02:06 T cells = test: IFN-γ assay: primed T cells co-cultured with AGS cells expressing RASA3 isoforms (ELISA); format: cell-based, human; conditions: T cells primed with the isoform, co-cultured with AGS cells expressing the same isoform, two days
Description: To test the immunogenicity of the RASA3 WT and Variant protein sequences, CD14+ monocytes were isolated from a HLA-A*02:06 donor by positive selection using magnetic beads (Miltenyi, Germany). Dendritic cells were generated by GM-CSF (1000 IU/ml) and IL-4 (400 IU/ml), and further matured by TNF (10 ng/ml), IL-1b (10 ng/ml), IL-6 (10 ng/ml) (Miltenyi, Germany) and PGE2 (1 μg/ml) (Stemcell Technologies, Canada) for 24 hours. The DCs were then primed with AGS cell lysates expressing WT RASA3 or Variant RASA3 for 24 hours, before being co-cultured with T cells from the same donor at the ratio of 1:5. After 5 days of co-culture with DC, T cells were isolated by positive selection using CD3 magnetic beads (Miltenyi, Germany) and co-cultured with AGS cells expressing either WT or Variant RASA3 at the ratio of 20:1 for two days. Supernatants were harvested and IFN-γ release was measured by ELISA (R&D, USA).

RAS = test: RAS-GTP assay (Active RAS pull-down) in GES1 cells; format: cell-based; conditions: vs empty vector or RASA3 SomT
Description: GES1 cells were transfected with either RASA3 CanT, RASA3 SomT or empty vector for 48 hours. Cells were harvested for protein in FBS containing media or subjected to over-night serum starvation followed by serum stimulation for 30 minutes prior to harvest. Proteins were extracted using ice-cold lysis buffer (Active RAS Pull-down and Detection Kit) containing protease inhibitor cocktail (Nacalai Tesque). Active RAS fraction was obtained using the Active RAS Pull-down and Detection Kit (Thermo Fisher Scientific) according to manufacturer's instructions. Total RAS was measured in corresponding whole cell protein lysates. β-actin was used as a loading control. Protein concentrations were determined using the Pierce BCA protein assay (Thermo Scientific). SDS sample buffer was added to the lysates and boiled at 100° C. for 5 minutes. Samples were loaded in each well of a 4-15% Mini-Protean TGX gel (Biorad) and transferred to a PVDF membrane using a semi-dry blotting system (Biorad). Membranes were probed with anti-RAS (1 in 200 dilution, supplied in Active RAS Pull-down and Detection Kit), or B-actin (1 in 5000 dilution, Sigma A5316) in 5% milk-PBST at 4° C. over-night. Secondary anti-mouse antibody (LNA931, Amersham) was used at a dilution of 1 in 2000 for 1 hour at room temperature. […]

GES1 cells [1] = test: Transwell migration assay; format: cell-based; conditions: GES1 cells transfected with isoform, 24 h
Description: (§1) To determine cell migratory capacities, RASA3 wild type and variant transfected AGS and GES1, SNU1967 and AGS, and siRNA treated NCC24 cells were tested using Corning Costar 6.5 mm Transwell with 8.0 μm Pore Polycarbonate Membrane Inserts (3422, Corning, NY, USA). 2.5×10^4 AGS cells and 2×10^4 GES1 cells, 3×10^4 SNU1967 cells and 5×10^4 NCC24 cells were suspended in 0.1 ml serum-free RPMI medium and added to the top of the Transwell insert. 0.6 ml RPMI containing 10% FBS was added into the bottom well as a chemoattractant. After incubation for 24 h at 37° C. in a 5% CO2 incubator, cells were fixed with 3.7% formaldehyde and permeabilized with 100% methanol. Non-migrated cells were scraped off with cotton swabs from the upper surface of the membrane. Migrated cells were stained with 0.5% crystal violet. The number of migrated cells were represented as the total area of migrated cells vs the area of transwell membrane calculated using ImageJ software. For cell invasion assays, the above Transwell inserts were coated with 0.1 ml (300 μg/mL) Corning Matrigel matrix (354234, Corning, NY, USA) for 2 to 4 h at 37° C. before use. All subsequent steps were identical to the migration assay protocol.

AGS cells [2] = test: Transwell migration assay; format: cell-based; conditions: KRAS mutated AGS cells transfected with isoform, 24 h
Description: as §1

SNU1967 cells [3] = test: Matrigel invasion assay; format: cell-based; conditions: SNU1967 cells transfected with isoform
Description: as §1

GES1 cells [4] = test: Matrigel invasion assay; format: cell-based; conditions: GES1 cells transfected with isoform
Description: as §1

SNU1967 cells [5] = test: Cell proliferation assay (WST-8); format: cell-based; conditions: 24 to 120 hours post-transfection
Description: (§2) 3×10^3 GES1, SNU1967 and AGS cells were plated into 96-well plates in media with 10% fetal bovine serum and left overnight to attach. The next day (Day 0), cells were transiently transfected with wild-type and variant RASA3 constructs using Lipofectamine 3000 (Thermo Scientific). The amount of the constructs was 40 ng/well for AGS and 100 ng/well for GES1 and SNU1967 cells. Cell proliferation was measured by the WST-8 assay (Cell Counting Kit-8, Dojindo) from 24 to 120 hours post-transfection. 10 μL of WST-8 solution was added per well and the absorbance reading was measured at 450 nm after 2 hours of incubation in a humidified incubator.

GES1 cells [6] = test: Cell proliferation assay (WST-8); format: cell-based; conditions: 24 to 120 hours post-transfection
Description: as §2

AGS cells [7] = test: Cell proliferation assay (WST-8); format: cell-based; conditions: 24 to 120 hours post-transfection
Description: as §2

## CC[C@H](C)n1cc(C)c2c(C(=O)NCc3c(C)cc(C)[nH]c3=O)cc(-c3ccc(N4CCNCC4)nc3)cc21 [GSK126]
IM95 GC cells; 78/87, FC>=2, qval<0.1
  deregulated promoters mapping to somatic promoters lost in primary GC that were reactivated: 89.6%
IM95 GC cells; Day 6 and 9, RNA-seq
  gene sets of genes upregulated upon EZH2 inhibition: enriched in previously identified PRC2 target gene sets
IM95 GC cells; Fisher Test, P<0.001
  OR, somatic promoters vs all GSK126 regulated genes: 9.21
  OR, somatic promoters vs unaltered promoters changing expression: 1.46
IM95 GC cells; GSK126 5 μM, Day 6 and 9, RNA-seq
  promoters deregulated in total: 2134
IM95 GC cells; GSK126 5 μM, RNA-seq
  proportion of somatic promoters deregulated: 12.8%
  proportion of unaltered promoters exhibiting deregulation: 8.8%
  somatic promoters deregulated (of 1959 promoters exhibiting somatic alterations in primary GCs): 251
  total proportion of genes (as defined by Gencode) regulated: 1.5%
IM95 GC cells; day 6 (D6) and Day 9 (D9)
  expression at PSCA TSS (lost somatic promoter): Gain of expression
  expression at SLC9A9 TSS (lost somatic promoter): Gain of expression
  expression at alternative promoter ESRRG (lost promoter activity): Gain of expression

B1: RASA3 CanT: canonical full-length RASA3 protein isoform, transfected construct (protein, UniProt Q14644 1-834, looked up)
chain: MAVEDEGLRVFQSVKIKIGEAKNLPSYPGPSKMRDCYCTVNLDQEEVFRTKIVEKSLCPFYGEDFYCEIPRSFRHLSFYIFDRDVFRRDSIIGKVAIQKEDLQKYHNRDTWFQLQHVDADSEVQGKVHLELRLSEVITDTGVVCHKLATRIVECQGLPIVNGQCDPYATVTLAGPFRSEAKKTKVKRKTNNPQFDEVFYFEVTRPCSYSKKSHFDFEEEDVDKLEIRVDLWNASNLKFGDEFLGELRIPLKVLRQSSSYEAWYFLQPRDNGSKSLKPDDLGSLRLNVVYTEDHVFSSDYYSPLRDLLLKSADVEPVSASAAHILGEVCREKQEAAVPLVRLFLHYGRVVPFISAIASAEVKRTQDPNTIFRGNSLASKCIDETMKLAGMHYLHVTLKPAIEEICQSHKPCEIDPVKLKDGENLENNMENLRQYVDRVFHAITESGVSCPTVMCDIFFSLREAAAKRFQDDPDVRYTAVSSFIFLRFFAPAILSPNLFQLTPHHTDPQTSRTLTLISKTVQTLGSLSKSKSASFKESYMATFYEFFNEQKYADAVKNFLDLISSSGRRDPKSVEQPIVLKEGFMIKRAQGRKRFGMKNFKKRWFRLTNHEFTYHKSKGDQPLYSIPIENILAVEKLEEESFKMKNMFQVIQPERALYIQANNCVEAKDWIDILTKVSQCNQKRLTVYHPSAYLSGHWLCCRAPSDSAPGCSPCTGGLPANIQLDIDGDRETERIYSLFNLYMSKLEKMQEACGSKSVYDGPEQEEYSTFVIDDPQETYKTLKQVIAGVGALEQEHAQYKRDKFKKTKYGSQEHPIGDKSFQNYIRQQSETSTHSI
modifications: full-length
notes: canonical full-length RASA3 protein isoform, transfected construct
HLA-A*02:06 T cells
  IFNγ release from primed T cells: significantly more
RAS
  levels of active GTP-bound RAS: lower levels of active GTP-bound RAS
GES1 cells [1]
  migration: did not
AGS cells [2]
  migration: potently suppressed
AGS cells [2]; listed as RASA3 WT
  migration: more potent migration suppression
SNU1967 cells [3]
  invasion: significantly suppressed
GES1 cells [4]
  invasion: did not
SNU1967 cells [5]
  cellular proliferation rate: did not alter
GES1 cells [6]
  cellular proliferation rate: did not alter
AGS cells [7]
  cellular proliferation rate: did not alter
